The subject of assay [1] is Aβ42. Kind of assay: Screening for γ-secretase-modulating activity, Method 1: Aβ42 sandwich ELISA on SKNBE2 cell media. It counts as cell-based. Particulars: SKNBE2 cells carrying APP 695 wild type. As to the method: (§1) Screening was carried out using SKNBE2 cells carrying the APP 695—wild type, grown in Dulbecco's Modified Eagle's Medium/Nutrient mixture F-12 (DMEM/NUT-mix F-12) (HAM) provided by Gibco (cat no. 31330-38) containing 5% Serum/Fe supplemented with 1% non-essential amino acids. Cells were grown to near confluency.
(§2) The screening was performed using the assay as described in Citron et al (1997) Nature Medicine 3: 67. Briefly, cells were plated in a 96-well plate at about 10^5 cells/ml one day prior to addition of compounds. Compounds were added to the cells in Ultraculture (Lonza, BE12-725F) supplemented with 1% glutamine (Invitrogen, 25030-024) for 18 hours. The media were assayed by two sandwich ELISAs, for Aβ42 and Aβtotal. Toxicity of the compounds was assayed by WST-1 cell proliferation reagent (Roche, 1 644 807) according to the manufacturer's protocol.
To quantify the amount of Aβ42 in the cell supernatant, commercially available Enzyme-Linked-Immunosorbent-Assay (ELISA) kits were used (Innotest® β-Amyloid(1-42), Innogenetics N.V., Ghent, Belgium). The Aβ42 ELISA was performed essentially according to the manufacturer's protocol. Briefly, the standards (dilutions of synthetic Aβ1-42) were prepared in polypropylene Eppendorf with final concentrations of 8000 down to 3.9 pg/ml (1/2 dilution step). Samples, standards and blanks (100 μl) were added to the anti-Aβ42-coated plate supplied with the kit (the capture antibody selectively recognizes the C-terminal end of the antigen). The plate was allowed to incubate 3 h at 25° C. in order to allow formation of the antibody-amyloid complex. Following this incubation and subsequent wash steps a selective anti-Aβ-antibody conjugate (biotinylated 3D6) was added and incubated for a minimum of 1 hour in order to allow formation of the antibody-Amyloid-antibody-complex. After incubation and appropriate wash steps, a Streptavidine-Peroxidase-Conjugate was added, followed 30 minutes later by an addition of 3,3′,5,5′-tetramethylbenzidine (TMB)/peroxide mixture, resulting in the conversion of the substrate into a coloured product. This reaction was stopped by the addition of sulfuric acid (0.9 N) and the colour intensity was measured by means of photometry with an ELISA-reader with a 450 nm filter.
(§3) To obtain the values reported in Table 3a, the sigmoidal dose response curves were analysed by computerised curve-fitting, with percent of inhibition plotted against compound concentration. A 4-parameter equation (model 205) in XLfit was used to determine the IC50. The top and the bottom of the curve were fixed to 100 and 0, respectively, and the hill slope was fixed to 1. The IC50 represents the concentration of a compound that is required for inhibiting a biological effect by 50% (Here, it is the concentration where Aβ peptide level is reduced by 50%).
(§4) To obtain the values reported in Table 3b, the data were calculated as percentage of the maximum amount of amyloid Beta 42 measured in the absence of the test compound. The sigmoidal dose response curves were analyzed using non-linear regression analysis with percentage of the control plotted against the log concentration of the compound. A 4-parameter equation was used to determine the IC50. The values reported in Table 3b are averaged IC50 values.
For orientation: An ELISA detects its analyte on a solid surface through an enzyme-linked reagent.

Assay [2] relates to Aβtotal. Kind of assay: Screening for γ-secretase-modulating activity, Method 1: Aβtotal sandwich ELISA on SKNBE2 cell media. It counts as cell-based. Particulars: SKNBE2 cells carrying APP 695 wild type. As for the experimental part:
as §1, §2
To quantify the amount of Aβtotal in the cell supernatant, samples and standards were added to a 6E10-coated plate. The plate was allowed to incubate overnight at 4° C. in order to allow formation of the antibody-amyloid complex. Following this incubation and subsequent wash steps a selective anti-Aβ-antibody conjugate (biotinylated 4G8) was added and incubated for a minimum of 1 hour in order to allow formation of the antibody-Amyloid-antibody-complex. After incubation and appropriate wash steps, a Streptavidine-Peroxidase-Conjugate was added, followed 30 minutes later by an addition of Quanta Blu fluorogenic peroxidase substrate according to the manufacturer's instructions (Pierce Corp., Rockford, Ill.).
as §3, §4

Where [3] appears, read: Table 3a, 18 hours, XLfit, top/bottom fixed to 100 and 0, hill slope 1.
The mark [4] stands for this setting: Table 3b, non-linear regression of % of control, averaged IC50 values.
Where [5] appears, read: Homo sapiens, Table 3a, 18 hours, XLfit, top/bottom fixed to 100 and 0, hill slope 1.
The mark [6] stands for this setting: Homo sapiens, Table 3b, non-linear regression of % of control, averaged IC50 values.

Usually IC50 stands for the concentration that gives 50% inhibition.

As to `COCCCc1nc2c(Nc3ccc(-n4cnc(C)c4)c(OC)c3)cccc2n1C` [Compound 32], the IC50 in assay [1] (setting [3]) was 216 nM; in assay [1] (setting [4]) it was 209 nM; in assay [2] (setting [3]), over 10000 nM; in assay [2] (setting [4]), over 10000 nM.

On to `COc1cc(Nc2cccc3c2nc(CCC(F)(F)F)n3C)ccc1-n1cnc(C)c1` [Compound 34], for which the IC50 in assay [1] (setting [3]) is 51 nM; in assay [1] (setting [4]), 43 nM; in assay [2] (setting [3]), over 1000 nM; in assay [2] (setting [4]) it was over 1000 nM.

Take `COc1cc(Nc2cccc3oc(C4CCCC4)nc23)ccc1-n1cnc(C)c1` [Compound 37]: the IC50 was 266 nM in assay [1] (setting [3]), 275 nM in assay [1] (setting [4]), over 10000 nM in assay [2] (setting [3]) and over 10000 nM in assay [2] (setting [4]).

Consider `COc1cc(Nc2cccc3c2nc(N2CCCCC2)n3C)ccc1-n1cnc(C)c1` [Compound 39], for which the IC50 in assay [1] (setting [3]) is 69 nM; in assay [1] (setting [4]), 87 nM; in assay [2] (setting [3]), over 3000 nM; in assay [2] (setting [4]) it was over 5000 nM.

Turning to `COc1cc(Nc2cccc3oc(C4CCN(C(=O)OC(C)(C)C)CC4)nc23)ccc1-n1cnc(C)c1` [Compound 42], the IC50 in assay [1] (setting [3]) is 1100 nM; in assay [1] (setting [4]) it was 1100 nM; in assay [2] (setting [3]), over 3000 nM; in assay [2] (setting [4]), over 3000 nM.

For `COc1cc(Nc2cccc3c2nc(CC2CCOCC2)n3C)ccc1-n1cnc(C)c1` [Compound 43], the IC50 in assay [1] (setting [3]) is 123 nM; in assay [1] (setting [4]) it was 120 nM; in assay [2] (setting [3]), over 1000 nM; in assay [2] (setting [4]) it was over 5000 nM.

As for `COc1cc(Nc2cccc3c2nc(-c2ccccc2C)n3Cc2ccccc2)ccc1-n1cnc(C)c1` [Compound 46], the IC50 in assay [1] (setting [5]) is 10 nM; in assay [1] (setting [6]), 10 nM; in assay [2] (setting [5]) it was over 1000 nM; in assay [2] (setting [6]) it was over 3000 nM.

As for `COc1ccc(-c2nc3c(Nc4ccc(-n5cnc(C)c5)c(OC)c4)cccc3n2C)cc1` [Compound 47], the IC50 was 16 nM in assay [1] (setting [3]), 13 nM in assay [1] (setting [4]), over 1000 nM in assay [2] (setting [3]) and over 3000 nM in assay [2] (setting [4]).

For the compound `COc1ccccc1-c1nc2c(Nc3ccc(-n4cnc(C)c4)c(OC)c3)cccc2o1` [Compound 48], the IC50 in assay [1] (setting [3]) is 427 nM; in assay [1] (setting [4]) it was 398 nM; in assay [2] (setting [3]) it was over 10000 nM; in assay [2] (setting [4]) it was over 10000 nM.

As for `COc1cccc(-c2nc3c(Nc4ccc(-n5cnc(C)n5)cc4)cccc3n2C)c1` [Compound 50], the IC50 is 101 nM in assay [1] (setting [3]), 81 nM in assay [1] (setting [4]), over 10000 nM in assay [2] (setting [3]) and over 10000 nM in assay [2] (setting [4]).

With `COc1cccc(-c2nc3c(Nc4ccc(-n5cnc(C)n5)c(OC)c4)cccc3n2C)c1` [Compound 52], the IC50 in assay [1] (setting [3]) is 20 nM; in assay [1] (setting [4]), 19 nM; in assay [2] (setting [3]), over 3000 nM; in assay [2] (setting [4]), over 3000 nM.

For the compound `COc1cccc(-c2nc3c(Nc4ccc(-n5cnc(C)n5)c(OC)c4)cccc3n2C(C)C)c1` [Compound 53], the IC50 in assay [1] (setting [3]) is 22 nM; in assay [1] (setting [4]) it was 19 nM; in assay [2] (setting [3]), over 1000 nM; in assay [2] (setting [4]), over 3000 nM.

`CCOc1cc(C)c(-c2nc3c(Nc4ccc(-n5cnc(C)n5)c(OC)c4)cccc3n2C)cc1C(C)C` [Compound 58]: the IC50 was 68 nM in assay [1] (setting [3]), 65 nM in assay [1] (setting [4]), over 3000 nM in assay [2] (setting [3]) and over 3000 nM in assay [2] (setting [4]).

For the compound `CCOc1cc(C)c(Nc2nc3c(Nc4ccc(-n5cnc(C)c5)c(OC)c4)cccc3n2C)cc1C(C)C` [Compound 60], the IC50 is 14 nM in assay [1] (setting [3]), 14 nM in assay [1] (setting [4]), over 1000 nM in assay [2] (setting [3]) and over 3000 nM in assay [2] (setting [4]).

Consider `COc1cc(Nc2cccc3[nH]c(-c4ccc(F)cc4)nc23)ccc1-n1cnc(C)c1` [Compound 62], for which the IC50 is 114 nM in assay [1] (setting [3]), 195 nM in assay [1] (setting [4]), over 1000 nM in assay [2] (setting [3]) and over 3000 nM in assay [2] (setting [4]).

As for `COc1cc(Nc2cccc3c2nc(-c2ccc(F)cc2)n3C)ccc1-n1ccnc1` [Compound 63], the IC50 in assay [1] (setting [3]) is 23 nM; in assay [1] (setting [4]), 22 nM; in assay [2] (setting [3]) it was over 1000 nM; in assay [2] (setting [4]), over 3000 nM.

For `COc1cc(Nc2cccc3c2nc(-c2ccc(F)cc2)n3C)ccc1-n1cncn1` [Compound 64], the IC50 in assay [1] (setting [3]) is 48 nM; in assay [1] (setting [4]), 49 nM; in assay [2] (setting [3]), over 3000 nM; in assay [2] (setting [4]), over 3000 nM.

Regarding `Cn1c(-c2ccc(F)cc2)nc2c(Nc3ccc(-n4cncn4)c(F)c3)cccc21` [Compound 65], the IC50 is 89 nM in assay [1] (setting [3]), 81 nM in assay [1] (setting [4]), over 3000 nM in assay [2] (setting [3]) and over 3000 nM in assay [2] (setting [4]).

`COc1cc(Nc2cccc3c2nc(-c2ccc(F)cc2)n3C)ccc1-n1cnc(C#N)c1` [Compound 72]: the IC50 is 720 nM in assay [1] (setting [3]), 724 nM in assay [1] (setting [4]), over 3000 nM in assay [2] (setting [3]) and over 3000 nM in assay [2] (setting [4]).

`Cc1ncn(-c2ccc(Nc3cccc4c3nc(-c3ccc(F)cc3)n4C(C)(C)C)cc2)n1` [Compound 77]: the IC50 was 190 nM in assay [1] (setting [3]), 191 nM in assay [1] (setting [4]), over 3000 nM in assay [2] (setting [3]) and over 3000 nM in assay [2] (setting [4]).

`COc1cc(Nc2cccc3c2nc(-c2ccc(F)cc2)n3Cc2ccccc2)ccc1-n1cnc(C)c1` [Compound 79]: the IC50 in assay [1] (setting [3]) is 24 nM; in assay [1] (setting [4]) it was 23 nM; in assay [2] (setting [3]), over 10000 nM; in assay [2] (setting [4]) it was over 10000 nM.

Take `COc1cc(Nc2cccc3c2nc(Cc2ccc(F)cc2)n3C)ccc1-n1cnc(C)c1` [Compound 81]: the IC50 was 21 nM in assay [1] (setting [3]), 21 nM in assay [1] (setting [4]), over 1000 nM in assay [2] (setting [3]) and over 1000 nM in assay [2] (setting [4]).

Consider `COc1cc(-c2nc3c(Nc4ccc(-n5cncn5)c(F)c4)cccc3n2C)ccc1Cl` [Compound 83], for which the IC50 was 47 nM in assay [1] (setting [3]), 45 nM in assay [1] (setting [4]), over 3000 nM in assay [2] (setting [3]) and over 3000 nM in assay [2] (setting [4]).

For the compound `COc1cc(Nc2cccc3c2nc(-c2cccc(OC)c2Cl)n3C)ccc1-n1cnc(C)n1` [Compound 84], the IC50 was 141 nM in assay [1] (setting [3]), 141 nM in assay [1] (setting [4]), over 3000 nM in assay [2] (setting [3]) and over 3000 nM in assay [2] (setting [4]).

For `Cc1ncnn1-c1ccc(Nc2cccc3c2nc(-c2ccc(F)cc2)n3C(C)C)cc1` [Compound 88], the IC50 was 58 nM in assay [1] (setting [3]), 72 nM in assay [1] (setting [4]), over 3000 nM in assay [2] (setting [3]) and over 3000 nM in assay [2] (setting [4]).

As for `COc1cc(Nc2nccc3[nH]c(-c4ccc(F)cc4)nc23)ccc1-n1cnc(C)c1` [Compound 90], the IC50 in assay [1] (setting [3]) was 39 nM; in assay [1] (setting [4]), 39 nM; in assay [2] (setting [3]), over 1000 nM; in assay [2] (setting [4]), over 5000 nM.

Regarding `COc1cc(Nc2nccc3c2nc(-c2ccc(F)cc2F)n3C)ccc1-n1cnc(C)n1` [Compound 98], the half-maximal inhibitory concentration (IC50) is 357 nM in assay [1] (setting [3]), 331 nM in assay [1] (setting [4]), over 3000 nM in assay [2] (setting [3]) and over 10000 nM in assay [2] (setting [4]).

In the case of `COc1cc(Nc2cccc3c2nc(COc2ccccc2)n3C)ccc1-n1ncnc1C` [Compound 99], the IC50 is 436 nM in assay [1] (setting [3]), 427 nM in assay [1] (setting [4]), over 3000 nM in assay [2] (setting [3]) and over 10000 nM in assay [2] (setting [4]).

`Cc1cc2c(nc(-c3ccc(F)cc3)n2C)c(Nc2ccc(-n3ncnc3C)c(F)c2)n1` [Compound 100]: the IC50 was 653 nM in assay [1] (setting [3]), 661 nM in assay [1] (setting [4]), over 3000 nM in assay [2] (setting [3]) and over 10000 nM in assay [2] (setting [4]).

For the origin of these results see patent US8772504B2, “Substituted benzoxazole, benzimidazole, oxazolopyridine and imidazopyridine derivatives as gamma secretase modulators” (Janssen Pharmaceuticals, Inc., priority 2009, dated 2014).
